In brackets after ≈: the same amount, converted by molar mass. Read-outs that look alike come from different tables or passages of the source.
Tests used:
[1] = tested on: U937 human lymphoma cells; assay: Cell death assay in U937 cells (sulforhodamine B, 72 h); format: cell-based; conditions: Homo sapiens, U-937, 72 h
Experimental: To each well was added 2 μL of 100× compound stock solutions in DMSO at varying concentrations so that the cells were treated with concentrations between 0 μM and 100 μM compound. Each concentration was tested in quintuplicate. In each plate 5 wells received 10 μM etoposide as a positive control and 5 wells received 2 μL of DMSO as a negative control. […] 1 Specifically, to each well of the plate was added 50 μL of an 80% (w/v) solution of TCA in H2O and the plates were allowed to rest at 4° C. overnight. The plates were then washed gently with a steam of H2O five times to remove the excess TCA and precipitated serum proteins. […] After staining, the wells were gently washed 5 times with 100 μL of 1% (v/v) acetic acid to remove the unbound dye. The plates were then allowed to air dry. […] The OD was then read at 510 nm in a Molecular Dynamics plate reader and the percent cell death calculated and normalized to the positive control (100% cell death) and the negative control (0% cell death). The percent cell death was averaged for each compound concentration and plotted as a function of compound concentration. The data were fit to a logistical dose response curve using Table curve 2D and the IC50 value was calculated. The experiment was repeated three times and the average of the calculated IC50 values was reported. The standard error of the mean (SEM) was determined and reported for the triplicate experiments.
U-937 cells grow in culture as a suspension.

[2] = Solubility in β-cyclodextran; format: physicochemical
[3] = Formulation of PAC-1 in aqueous 2-hydroxypropyl-β-cyclodextrin; format: physicochemical
Description: Formulation of PAC-1. […] Complete dissolution requires acidification of the aqueous solution to pH 1.5-2, and then the solution is restored to pH 5-6.

C57/BL6 mice = assay: Neurotoxicity in mice after intravenous administration; format: in vivo, mouse; conditions: for Neurotoxicity: Mice, preliminary results
[4] = tested on: healthy research hound dog; assay: Neurotoxicity in dogs; format: in vivo
Description: Further information about this compound is described elsewhere herein.

EL-4 = assay: Cytotoxicity in EL-4 cells (sulforhodamine B, 72 h); format: cell-based; conditions: EL4, EL-4, Mouse Lymphoma
17-71 = assay: Cytotoxicity in 17-71 cells (MTS cell viability assay); format: cell-based; conditions: Canis lupus familiaris, 17-71, Dog Lymphoma
GL-1 = assay: Cytotoxicity in GL-1 cells (sulforhodamine B, 72 h); format: cell-based; conditions: Canis lupus familiaris, GL-1, Dog Lymphoma
OSW = assay: Cytotoxicity in OSW cells (sulforhodamine B, 72 h); format: cell-based; conditions: Canis lupus familiaris, Dog Lymphoma
Jurkat = assay: Cytotoxicity in Jurkat cells (sulforhodamine B, 72 h); format: cell-based; conditions: Human Leukemia
SK-Mel-5 = assay: Cytotoxicity in SK-Mel-5 cells (sulforhodamine B, 72 h); format: cell-based; conditions: SK-Mel-5, Human Melanoma
HeLa = assay: Cytotoxicity in HeLa cells (sulforhodamine B, 72 h); format: cell-based; conditions: Human Cervical
MDA-MB-231 = assay: Cytotoxicity in MDA-MB-231 cells (sulforhodamine B, 72 h); format: cell-based; conditions: MDA-MB-231, Human Breast
U-937 cells = assay: Induction of apoptosis, annexin V/PI staining; format: cell-based, human; conditions: 50 μM, 12 hours
Experimental: The cells were centrifuged (200 g for 5 min), washed with PBS (2 mL), resuspended in 500 μL Annexin V Binding Buffer. To each sample was added 10 μL of FITC conjugated Annexin V stain (Southern Biotech) and 10 μL of propidium iodide (Sigma) to a final concentration of 50 μg/mL. Cell populations were analyzed on a Benton Dickinson LSR II cell flow cytometer.

C=CCc1cccc(/C=N/NC(=O)CN2CCN(Cc3ccccc3)CC2)c1O [PAC-1]
IC50 ([1]; read-out: IC50 Value (μM), U-937, Human Lymphoma, 72 hours): 9.3 ± 0.5 µM | IC50 ([1]; read-out: U937 (IC50 μM), 72 h exposure, sulforhodamine B assay): 4.8 ± 1 µM | Solubility in β-Cyclodextran (mg β-CD/μmol Compound) [2]: 5.3 mg β-CD/μmol Compound | solubility ([3]; aqueous 200 mg/mL 2-hydroxypropyl-β-cyclodextrin solution, aqueous with cosolvent or surfactant or cyclodextrin, aqueous 200 mg/mL solution of 2-hydroxypropyl-β-cyclodextrin): 20 mg/mL (≈ 51 mM) | stability in solution ([3]; stored at 4° C., pH 5-6): at least 5 days | Neurotoxicity (C57/BL6 mice; 12.5 mg/kg): No | Neurotoxicity (C57/BL6 mice; 37.5 mg/kg): Yes | clinical signs of toxicity (C57/BL6 mice; mice, 10 mg/kg i.v., observed 24 hours): no clinical signs of toxicity were observed | clinical signs of toxicity (C57/BL6 mice; mice, 20 mg/kg i.v.): mild neurological symptoms including lethargy, and mild ataxia | persistence of symptoms after injection (C57/BL6 mice; mice, 20 mg/kg i.v.): 20 min | ataxia (incidence) (C57/BL6 mice; mice, 30 mg/kg i.v.): 3/3 | clinical signs of toxicity (C57/BL6 mice; mice, 30 mg/kg i.v.): overt signs of neurotoxicity | duration of neurotoxicity (C57/BL6 mice; mice, 30 mg/kg i.v.): approximately 15 minutes | loss of balance (incidence) (C57/BL6 mice; mice, 30 mg/kg i.v.): 3/3 | onset of neurotoxicity after injection (C57/BL6 mice; mice, 30 mg/kg i.v.): ≤ 5 min | spasms (incidence) (C57/BL6 mice; mice, 30 mg/kg i.v.): 1/3 | clinical signs of toxicity (C57/BL6 mice; mice, 50 mg/kg i.v.): acute neurotoxic symptoms with more pronounced ataxia and loss of balance | toxicity at higher doses ([4]; dog, formulation with 2-hydroxypropyl-β-cyclodextrin): acute neurological toxicity (ataxia and seizure) | duration of neurotoxicity ([4]; one hound dog, 60 mg/kg i.v.): 20 min | IC50 (EL-4): 3.8 ± 0.9 µM | IC50 (17-71): 2.5 ± 0.9 µM | IC50 (GL-1): 4.9 ± 0.3 µM | IC50 (OSW): 8.6 ± 1.3 µM | IC50 (Jurkat): 5.7 ± 2.8 µM | IC50 (SK-Mel-5): 11.5 ± 3.6 µM | IC50 (HeLa): 15.5 ± 3.8 µM | IC50 (MDA-MB-231): 9.9 ± 1 µM | apoptosis (annexin V staining) (U-937 cells): ~40%

Reference: patent US9643960B2, “Procaspase activating compounds” (The Board of Trustees of the University of Illinois, priority 2009, dated 2017)
